Tests used:
[1] = tested on: IFNα induced CXCL-10 in PBMC; assay: ELISA of IFNα induced CXCL-10 in PBMC; assay type: cell-based; conditions: for IC50: IFNα induced CXCL-10 in PBMC
Description: • 1. Soak plate: Add 300 μL 1× washing solution and let stand for 30 seconds. After discarding the washing solution, anhydrous the microporous plate on absorbent paper. • 2. Add standard: Add 100 μL of 2-fold standard to standard well. Add 100 μL standard dilution (serum/plasma sample) or culture medium (cell culture supernatant sample) to blank well. • 3. Add sample: Serum/plasma: Add 50 μL 1× assay buffer and 50 μL sample to sample well. Cell culture supernatant: Add 100 μL cell culture supernatant to sample well. • 4. Add detection antibody: Add 50 μL diluted detection antibody (1:100 diluted) to each well. Make sure steps 4, 5 and 6 are added continuously without interruption. The sampling process was completed within 15 minutes. • 5. Incubation: Use sealing plate film to seal the plate. Shake at 300 rpm and incubate for 2 hours at room temperature. • 6. Washing: Discard the liquid, add 300 μL of washing solution and wash the plate 6 times. Pat anhydrous on blotting paper after each wash. To obtain the desired experimental performance, the residual liquid must be completely removed. • 7. Enzyme addition: Add 100 μL diluted horseradish peroxidase labeled streptavidin to each well (1:100 diluted). • 8. Incubation: Seal the plate with a new sealing film. Shake at 300 rpm and incubate at room temperature for 45 minutes. • 9. Washing: Repeat […]. • 10. Add substrate for color development: Add 100 μL of color development substrate TMB to each well, keep away from light, and incubate at room temperature for 5-30 minutes. • 11. Add Stop Solution: Add 100 μL stop solution to each well. The color changed from blue to yellow. If the color appears green or the color changes unevenly, gently tap the frame of the plate to mix well. • 12. Assay readout: Within 30 minutes, perform dual wavelength detection using a microplate reader to measure the OD at the absorption maximum at 450 nm and reference wavelengths at 570 nm or 630 nm. The calibrated OD value is the measured value at 450 nm minus the measured value at 570 nm or 630 nm.

JAK1 JH2 = JAK1 JH2 (Homo sapiens (Human), UniProt P23458); assay: Competitive binding assay
Sequence of JAK1 JH2 (P23458 583-855): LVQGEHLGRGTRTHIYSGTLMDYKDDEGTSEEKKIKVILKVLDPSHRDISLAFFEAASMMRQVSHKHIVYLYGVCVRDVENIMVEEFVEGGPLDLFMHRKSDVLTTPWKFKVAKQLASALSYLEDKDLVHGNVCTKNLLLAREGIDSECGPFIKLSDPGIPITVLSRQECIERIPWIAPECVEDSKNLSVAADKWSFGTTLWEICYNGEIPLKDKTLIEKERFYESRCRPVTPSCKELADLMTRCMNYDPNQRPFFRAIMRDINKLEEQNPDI
Description: (§1) For most assays, kinase-tagged T7 phage strains were prepared in an E. coli host derived from the BL21 strain. E. coli were grown to log-phase and infected with T7 phage and incubated with shaking at 32° C. until lysis. The lysates were centrifuged and filtered to remove cell debris. The remaining kinases were produced in HEK-293 cells and subsequently tagged with DNA for qPCR detection. Streptavidin coated magnetic beads were treated with biotinylated small molecule ligands for 30 minutes at room temperature to generate affinity resins for kinase assays. The liganded beads were blocked with excess biotin and washed with blocking buffer (SeaBlock (Pierce), 1% BSA, 0.05% Tween 20, 1 mM DTT) to remove unbound ligand and to reduce non-specific binding. […] Test compounds were prepared as 111X stocks in 100% DMSO. Dissociation constants (Kds) were determined using an 11-point 3-fold compound dilution series with three DMSO control points. […] The compounds were then diluted directly into the assays such that the final concentration of DMSO was 0.9%. All reactions performed in polypropylene 384-well plate. Each was a final volume of 0.02 ml. […] The beads were then re-suspended in elution buffer (1×PBS, 0.05% Tween 20, 0.5 μM nonbiotinylated affinity ligand) and incubated at room temperature with shaking for 30 minutes. The kinase concentration in the eluates was measured by qPCR.
(§2) An 11-point 3-fold serial dilution of each test compound was prepared in 100% DMSO at 100× final test concentration and subsequently diluted to 1× in the assay (final DMSO concentration=1%). Most Kds were determined using a compound top concentration=30,000 nM. If the initial Kd determined was <0.5 nM (the lowest concentration tested), the measurement was repeated with a serial dilution starting at a lower top concentration.
(§3) Binding constants (Kds) were calculated with a standard dose-response curve using the Hill equation: […]
(§4) The Hill Slope was set to −1.
(§5) Curves were fitted using a non-linear least square fit with the Levenberg-Marquardt algorithm.

JAK1 JH1 = JAK1 JH1 (Homo sapiens (Human), UniProt P23458); assay: Competitive binding assay
Sequence of JAK1 JH1 (P23458 875-1153): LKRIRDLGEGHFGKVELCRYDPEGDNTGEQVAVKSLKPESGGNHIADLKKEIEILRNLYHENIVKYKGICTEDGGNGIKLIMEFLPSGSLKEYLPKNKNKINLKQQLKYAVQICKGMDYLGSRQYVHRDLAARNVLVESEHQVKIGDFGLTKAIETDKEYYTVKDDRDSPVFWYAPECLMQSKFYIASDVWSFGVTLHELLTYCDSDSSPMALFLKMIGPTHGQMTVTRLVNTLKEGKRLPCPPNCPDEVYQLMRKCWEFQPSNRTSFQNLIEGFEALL
Description: as §1, §2, §3, §4, §5

JAK2 JH1 = JAK2 JH1 (Homo sapiens (Human), UniProt O60674); assay: Competitive binding assay
Sequence of JAK2 JH1 (O60674 849-1124): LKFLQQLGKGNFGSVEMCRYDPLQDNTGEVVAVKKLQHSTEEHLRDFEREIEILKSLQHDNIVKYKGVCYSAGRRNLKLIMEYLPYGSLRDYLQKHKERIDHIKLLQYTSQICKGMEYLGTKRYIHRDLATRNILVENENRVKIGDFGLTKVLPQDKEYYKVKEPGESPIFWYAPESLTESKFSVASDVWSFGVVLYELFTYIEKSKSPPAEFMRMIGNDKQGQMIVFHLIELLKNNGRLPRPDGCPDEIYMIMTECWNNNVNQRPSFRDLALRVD
Description: as §1, §2, §3, §4, §5

TYK2 JH1 = TYK2 JH1 (Homo sapiens (Human), UniProt P29597); assay: Competitive binding assay
Sequence of TYK2 JH1 (P29597 897-1176): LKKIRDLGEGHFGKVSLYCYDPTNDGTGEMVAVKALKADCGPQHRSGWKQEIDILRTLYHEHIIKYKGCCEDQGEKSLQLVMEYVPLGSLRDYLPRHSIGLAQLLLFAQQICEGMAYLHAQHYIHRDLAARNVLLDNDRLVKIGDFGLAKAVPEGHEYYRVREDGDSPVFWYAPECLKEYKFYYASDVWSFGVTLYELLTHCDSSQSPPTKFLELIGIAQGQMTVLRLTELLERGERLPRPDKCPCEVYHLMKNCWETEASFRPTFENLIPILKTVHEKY
Description: as §1, §2, §3, §4, §5

TYK2 JH2 = TYK2 JH2 (Homo sapiens (Human), UniProt P29597); assay: Competitive binding assay
Sequence of TYK2 JH2 (P29597 589-875): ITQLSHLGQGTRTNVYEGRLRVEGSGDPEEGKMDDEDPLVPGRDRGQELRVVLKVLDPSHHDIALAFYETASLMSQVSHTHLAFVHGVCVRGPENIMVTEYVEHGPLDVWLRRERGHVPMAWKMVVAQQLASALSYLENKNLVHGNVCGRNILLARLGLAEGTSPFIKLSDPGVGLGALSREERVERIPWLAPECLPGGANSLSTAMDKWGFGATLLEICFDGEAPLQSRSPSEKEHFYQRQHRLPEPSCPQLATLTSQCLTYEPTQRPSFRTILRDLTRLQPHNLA
Description: as §1, §2, §3, §4, §5

JAK3 JH1 = JAK3 JH1 (Homo sapiens (Human), UniProt P52333); assay: Competitive binding assay
Sequence of JAK3 JH1 (P52333 822-1111): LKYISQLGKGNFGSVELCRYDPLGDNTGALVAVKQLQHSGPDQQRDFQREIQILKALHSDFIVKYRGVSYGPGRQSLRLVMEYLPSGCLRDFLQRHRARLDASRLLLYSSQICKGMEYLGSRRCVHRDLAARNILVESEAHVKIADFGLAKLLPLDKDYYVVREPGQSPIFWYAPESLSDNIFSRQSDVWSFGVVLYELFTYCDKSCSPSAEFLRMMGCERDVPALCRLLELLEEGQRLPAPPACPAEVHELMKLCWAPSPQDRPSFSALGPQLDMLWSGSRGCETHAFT
Description: as §1, §2, §3, §4, §5

[2] = tested on: JAK1 JH2 and TYK2 JH2 versus JAK1 JH1, JAK2 JH1, JAK3 JH1 and TYK2 JH1; assay: Competitive binding assay, selectivity JH2 versus JH1 domains
Description: For most assays, kinase-tagged T7 phage strains were prepared in an E. coli host derived from the BL21 strain. E. coli were grown to log-phase and infected with T7 phage and incubated with shaking at 32° C. until lysis. The lysates were centrifuged and filtered to remove cell debris. The remaining kinases were produced in HEK-293 cells and subsequently tagged with DNA for qPCR detection. Streptavidin coated magnetic beads were treated with biotinylated small molecule ligands for 30 minutes at room temperature to generate affinity resins for kinase assays. The liganded beads were blocked with excess biotin and washed with blocking buffer (SeaBlock (Pierce), 1% BSA, 0.05% Tween 20, 1 mM DTT) to remove unbound ligand and to reduce non-specific binding. […] Test compounds were prepared as 111X stocks in 100% DMSO. Dissociation constants (Kds) were determined using an 11-point 3-fold compound dilution series with three DMSO control points. […] The compounds were then diluted directly into the assays such that the final concentration of DMSO was 0.9%. […] The kinase concentration in the eluates was measured by qPCR.
An 11-point 3-fold serial dilution of each test compound was prepared in 100% DMSO at 100× final test concentration and subsequently diluted to 1× in the assay (final DMSO concentration=1%). Most Kds were determined using a compound top concentration=30,000 nM. […]

[3] = tested on: IFNα induced TYK2/JAK1 mediated STAT activation; assay: Luciferase assay in L929 ISRE cells stimulated with IFN-α; assay type: cell-based; conditions: IFN-α 100 ng/mL
Description: • 1. L929 ISRE cells (5000 cells/well) were seeded on 96-well plates and incubated overnight at room temperature-; • 2. The cells were pretreated by adding different concentrations (10 nM, 50 nM, 100 nM, 200 nM or 1000 nM) of the test compounds for 2 hours; • 3. Added IFN-α (100 ng/mL) to stimulate cells for 6 hours; • 4. Removed the upper medium, add PBS (100 μL) and washed, then removed PBS; • 5. Added PLB lysis solution (50 μL) to each well, shook the well for 15 minutes; • 6. Transferred PLB lysis solution (30 μL) to a new 96-well whiteboard, added LAR II reagent (LAR II), then quickly read the 450 nm OD value with a plate washer; • 7. Added Stop & Glo reagent (30 μL), then read the 450 nm OD value using the plate washer. • 8. The final result was the OD value in step 6/OD value in step 7.

JAK1/JAK2 pathway = assay: Western blot p-STAT1/STAT1 in IFN-γ-stimulated HT-29 cells; assay type: cell-based; conditions: IFN-γ 100 ng/mL
Description: HT-29 cells were digested by trypsin and suspended in Dulbecco's Modified Eagle Medium (DMEM) and counted. The tested compounds were added into the 6 well plates (400 000/per well). After 2 hours, IFN-γ (100 ng/mL) was added to stimulate cells for 30 minutes. The cells were collected and lysed with protein lysate. The protein was quantitatively tested by BCA kit. Finally, p-STAT1/STAT1 and internal reference protein β-actin were detected by Western blot.

JAK2 and TYK2 = conditions: some studies, background; cited from earlier work
JAK2/JAK2 pathway = assay: Western blot p-STAT3/STAT3 in TPO-stimulated HEL cells; assay type: cell-based; conditions: TPO 100 ng/mL
Description: HEL cells were digested by trypsin, re-suspended in 1640 medium and counted. The compounds to be measured were added to 6 well plates (1 million/per well) for 2 hours, and then thrombopoietin (TPO)(final concentration: 100 ng/mL) was added to stimulate cells for 30 minutes. The cells were collected and lysed with protein lysate. The protein was quantitatively tested by bicinchoninic acid (BCA) kit. Finally, p-STAT3/STAT3 and internal reference protein β-actin were detected by Western blot.

COc1c(Nc2cc(NC(=O)C3CC3)nnc2C(N)=O)cccc1-c1cc(P(=O)(C2CC2)C2CC2)n(C)n1 [Compound A1, 6-(cyclopropanecarboxamido)-4-((3-(5-(dicyclopropylphosphoryl)-1-methyl-1H-pyrazol-3-yl)-2-methoxyphenyl)amino)pyridazine-3-carboxamide]
inhibition of IFNα induced CXCL-10 in PBMC [1]: effectively inhibited IFNα induced CXCL-10 in PBMC | IC50 [1]: 6.3 nM | Kd (JAK1 JH2): 0.02 ± 0.002 nM | affinity to JAK1 JH2 (JAK1 JH2): strong affinity | Kd (JAK1 JH1): 6900 ± 900 nM | affinity to JAK1 JH1 (JAK1 JH1): weak affinity | Kd (JAK2 JH1): 790 ± 40 nM | affinity to JAK2 JH1 (JAK2 JH1): weak affinity | Kd (TYK2 JH1): 550 ± 50 nM | affinity to TYK2 JH1 (TYK2 JH1): weak affinity | Kd (TYK2 JH2): 0.0044 ± 0.003 nM | affinity to TYK2 JH2 (TYK2 JH2): strong affinity | Kd (JAK3 JH1): 210 ± 15 nM | affinity to JAK3 JH1 (JAK3 JH1): weak affinity | selectivity to bind JAK1 JH2 and TYK2 JH2 than JAK1 JH1, JAK2 JH1, JAK3 JH1 and TYK2 JH1 [2]: more than 10,000 times | inhibition at 0.05 µM ([3]; Mus musculus, 50 nM compound, read-out: Inhibitory activity % (50 nM)): 34% | inhibition at 0.2 µM ([3]; Mus musculus, 200 nM compound, read-out: Inhibitory activity % (200 nM)): 87% | inhibition at 1 µM ([3]; Mus musculus, 1000 nM compound, read-out: Inhibitory activity % (1000 nM)): 98% | effect on downstream STAT1 phosphorylation induced by IFN-γ (JAK1/JAK2 pathway) (JAK1/JAK2 pathway): inhibited JAK1/JAK2 pathway in a concentration-dependent manner

Cn1cc(Nc2nccc(N3C[C@H]4CC[C@@H](C3)N4C(=O)[C@@H]3CC3(F)F)n2)cn1 [PF-06700841]
ratio of JAK2 IC50/TYK2 IC50 (JAK2 and TYK2): about 3.3

BMS986165 [reference compound]
IC50 [1]: 16.6 nM | effect on TPO-induced downstream STAT3 phosphorylation (JAK2/JAK2 pathway) (JAK2/JAK2 pathway): had no effect on TPO-induced downstream STAT3 phosphorylation | Inhibitory activity % (50 nM) ([3]; 50 nM compound): 62% | Inhibitory activity % (200 nM) ([3]; 200 nM compound): 94% | Inhibitory activity % (1000 nM) ([3]; 1000 nM compound): 99% | effect on downstream STAT1 phosphorylation induced by IFN-γ (JAK1/JAK2 pathway) (JAK1/JAK2 pathway): had no effect on downstream STAT1 phosphorylation induced by IFN-γ

From patent US20260001898A1, “Heteroaryl compounds as inhibitors of TYK2/JAK1, composition and application thereof” (Accro Bioscience (HK) Limited, priority 2022, published 2026)
